Laboratory results reported in PMC11528066, “Noninvasive Monitoring of Programmed Death-Ligand 2 Expression with Positron Emission Tomography using ^68Ga-labeled Peptide Antagonist in Preclinical and Exploratory Human Studies” (Research, 2024).
Read-outs that look alike come from different tables or passages of the source. Peptide text beside a SMILES is read from it. * marks the point of attachment. NOTA = O=C(O)CN1CCN(CC(=O)O)CCN(CC(=O)*)CC1; AEEEA = NCCOCCOCCOCC(=O)O

Tests used:
[1] = tested on: A549-PD-L2 cell lines; assay: Cell uptake assay; assay type: cell-based; details: A549-PD-L2 cells, n = 5; for cell uptake rate: mean ± SD
Description: Cell uptake assays were conducted to measure the uptake of [^68Ga]Ga-HN11-1 and [^68Ga]Ga-HN11-2 in A549 and A459-PD-L2 cell lines following incubation periods of 15, 30, 60, and 90 min. Blocking studies were performed by coincubating cells with an excess of precursor (HN11-1 / HN11-2), and then the cell uptakes of [^68Ga]Ga-HN11-1 and [^68Ga]Ga-HN11-2 were performed in A459-PD-L2 cell lines after 60 min of incubation. The experiment details are provided in the SI.
All tumor cells (1 × 10^6 per well) were seeded in two 24 - well plates, incubated for 24 h and then added with […] of [^68Ga]Ga-HN11-1 or [^68Ga]Ga-HN11-2 per well. After 15, 30, 60 and 90 min of uptake, the cells were separated from the medium, washed with 500 μL of cold PBS for three times and dissolved with 1 M NaOH. At different time points, these cells were collected and counted by using a γ-counter (WIZARD 2480, Pekin Elmer). For in vitro blocking experiments, cells were co-incubated with 10 μg of cold HN11-1 or HN11-2 precursor. After incubation, the cells were washed, collected and measured with a γ-counter, either. The IC50 values of [^68Ga]Ga-HN11-1 or [^68Ga]Ga-HN11-2 were determined using GraphPad Prism 8.0.2 software, respectively.

[2] = Biodistribution (γ-counter); assay type: in vivo, BALB/C nude mice; details: male, BALB/C nude, mouse, iv, total radioactivity, mean ± SD, n = 3; for tissue uptake at 10 min / tissue to tissue ratio at 10 min: 10 min p.i.; for tissue uptake at 0.5 h / tissue to tissue ratio at 0.5 h: 30 min p.i.; for tissue uptake at 1.5 h / tissue to tissue ratio at 1.5 h: 90 min p.i.
Description: Micro-PET imaging was conducted using an Inveon PET scanner (Siemens, Germany). Dynamic PET examine were acquired over the first 60 min following the simultaneous injection of 7.4 to 9.25 MBq (200 to 250 μCi) of [^68Ga]Ga-HN11-1 and [^68Ga]Ga-HN11-2. After reconstructing the images and delineating the regions of interest (ROIs), time-radioactivity curves were plotted to obtain the Tumor/Muscle (T/M) ratios. %ID/g represents the percentage of the injected dose of the radiotracer that accumulates in a specific tissue per gram of tissue weight. For the biodistribution study, the xenograft models received an intravenous injection of 3.7 to 5.5 MBq (100 to 150 μCi) of [^68Ga]Ga-HN11-1. After the designated period (10, 30, 60, and 90 min), the mice were euthanized, and important tissues and organs were dissected and collected. The samples were counted using the γ-counter for determining the %ID/g, presented as mean ± standard deviation (SD).
A549 cell lines were provided by the China Center for Type Culture Collection (CCTCC) and cultured in RPMI-1640 medium supplemented with 10 % fetal bovine serum and 100 U/mL penicillin-streptomycin. The lentivirus system was implemented to introduce PD-L2 (PDCD1LG2) over-expressed cDNA into the A549 cells. The viral vectors were produced in 293T cells and co-transfected with the psAX2, pMD2G and PD-L2 plasmids. A549 cells transduced with the vectors were selectively grown in 1.6 μg/mL puromycin. Transfection efficiency was identified by WB and real-time quantitative PCR. All the cells were cultured in an incubator at 37° C with 5 % CO2 atmosphere. A549 and A549-PD-L2 cells (5 × 10^6, 200 μL)were subcutaneously implanted into the right shoulder of BALB/C nude mice (male, 4-6 weeks), respectively. When the tumors reached to 5 - 8 mm in diameter, the mice were subjected to in vivo and ex vivo studies. All the mice were purchased from the Laboratory Animal Center of Central South University.

[3] = large intestine, read-out: Large intestine uptake
[4] = muscle, read-out: Muscle uptake
[5] = small intestine, read-out: Small intestine uptake
[6] = tumor and blood, read-out: Tumor/Blood ratio
[7] = tumor and brain, read-out: Tumor/Brain ratio
[8] = tumor and heart, read-out: Tumor/Heart ratio
[9] = tumor and liver, read-out: Tumor/Liver ratio
[10] = tumor and lung, read-out: Tumor/Lung ratio
[11] = tumor and muscle, read-out: Tumor/Muscle ratio

## CC[C@H](C)[C@H](NC(=O)[C@H](CCCNC(=N)N)NC(=O)CNC(=O)[C@H](CCC(=O)O)NC(=O)[C@H](CC(N)=O)NC(=O)[C@H](Cc1ccc(O)cc1)NC(=O)[C@H](CCCNC(=N)N)NC(=O)[C@H](Cc1ccc(O)cc1)NC(=O)[C@H](Cc1c[nH]cn1)NC(=O)COCCOCCOCCNC(=O)CN1CCN(CC(=O)O)CCN(CC(=O)O)CC1)C(=O)N[C@@H](CCCNC(=N)N)C(=O)N[C@@H](CC(N)=O)C(=O)O [[^68Ga]Ga-HN11-1, metal not drawn] ({NOTA-AEEEA}-HYRYNEGRIRN-OH)
[1]; 30 min incubation, γ-counter
  cell uptake rate: 4.51 ± 0.04%
[1]; 60 min, with excess (10 μg) of cold HN11-1 / HN11-2 precursor
  cell uptake, block group: 1.43 ± 0.13%
[1]; 60 min incubation
  cell uptake rate: 4.87 ± 0.28%
[2]; bone, read-out: Bone uptake
  tissue uptake at 10 min: 0.68 ± 0.06 %ID/g
  tissue uptake at 0.5 h: 0.6 ± 0.03 %ID/g
  tissue uptake at 1.5 h: 0.31 ± 0.06 %ID/g
[2]; bone, 60 min HN11-1 Block, read-out: Bone uptake
  tissue uptake at 1 h: 0.43 ± 0.07 %ID/g
[2]; bone, 60 min p.i., read-out: Bone uptake
  tissue uptake at 1 h: 0.41 ± 0.08 %ID/g
[2]; brain, read-out: Brain uptake
  tissue uptake at 10 min: 0.17 ± 0.03 %ID/g
  tissue uptake at 0.5 h: 0.12 ± 0.03 %ID/g
  tissue uptake at 1.5 h: 0.03 ± 0.01 %ID/g
[2]; brain, 60 min HN11-1 Block, read-out: Brain uptake
  tissue uptake at 1 h: 0.07 ± 0.01 %ID/g
[2]; brain, 60 min p.i., read-out: Brain uptake
  tissue uptake at 1 h: 0.07 ± 0.01 %ID/g
[2]; kidney, read-out: Kidney uptake
  tissue uptake at 10 min: 55.6 ± 6.6 %ID/g
[2]; [3]
  tissue uptake at 10 min: 1.02 ± 0.06 %ID/g
  tissue uptake at 0.5 h: 0.48 ± 0.09 %ID/g
  tissue uptake at 1.5 h: 0.1 ± 0.01 %ID/g
[2]; large intestine, 60 min HN11-1 Block, read-out: Large intestine uptake
  tissue uptake at 1 h: 0.23 ± 0.05 %ID/g
[2]; large intestine, 60 min p.i., read-out: Large intestine uptake
  tissue uptake at 1 h: 0.21 ± 0.05 %ID/g
[2]; [4]
  tissue uptake at 10 min: 0.89 ± 0.02 %ID/g
  tissue uptake at 0.5 h: 0.69 ± 0.07 %ID/g
  tissue uptake at 1.5 h: 0.15 ± 0.03 %ID/g
[2]; muscle, 60 min HN11-1 Block, read-out: Muscle uptake
  tissue uptake at 1 h: 0.56 ± 0.04 %ID/g
[2]; muscle, 60 min p.i., read-out: Muscle uptake
  tissue uptake at 1 h: 0.56 ± 0.09 %ID/g
[2]; [5]
  tissue uptake at 10 min: 0.86 ± 0.09 %ID/g
  tissue uptake at 0.5 h: 0.62 ± 0.04 %ID/g
  tissue uptake at 1.5 h: 0.16 ± 0.05 %ID/g
[2]; small intestine, 60 min HN11-1 Block, read-out: Small intestine uptake
  tissue uptake at 1 h: 0.34 ± 0.04 %ID/g
[2]; small intestine, 60 min p.i., read-out: Small intestine uptake
  tissue uptake at 1 h: 0.21 ± 0.02 %ID/g
[2]; [6]
  tissue to tissue ratio at 10 min: 0.58 ± 0.15
  tissue to tissue ratio at 0.5 h: 2.66 ± 0.47
  tissue to tissue ratio at 1.5 h: 2.58 ± 0.52
[2]; tumor and blood, 60 min p.i., read-out: Tumor/Blood ratio
  tissue to tissue ratio at 1 h: 6.41 ± 0.98
[2]; tumor and blood, with HN11-1 (block; amount not stated), 60 min HN11-1 Block, read-out: Tumor/Blood ratio
  tissue to tissue ratio at 1 h: 1.94 ± 0.67
[2]; [7]
  tissue to tissue ratio at 10 min: 10.3 ± 3.45
  tissue to tissue ratio at 0.5 h: 30.9 ± 8.94
  tissue to tissue ratio at 1.5 h: 12.3 ± 2.45
[2]; tumor and brain, 60 min p.i., read-out: Tumor/Brain ratio
  tissue to tissue ratio at 1 h: 31.9 ± 7.97
[2]; tumor and brain, with HN11-1 (block; amount not stated), 60 min HN11-1 Block, read-out: Tumor/Brain ratio
  tissue to tissue ratio at 1 h: 9.41 ± 2.19
[2]; [8]
  tissue to tissue ratio at 10 min: 1.15 ± 0.19
  tissue to tissue ratio at 0.5 h: 4.13 ± 0.21
  tissue to tissue ratio at 1.5 h: 3 ± 0.15
[2]; tumor and heart, 60 min p.i., read-out: Tumor/Heart ratio
  tissue to tissue ratio at 1 h: 12.7 ± 2.22
[2]; tumor and heart, with HN11-1 (block; amount not stated), 60 min HN11-1 Block, read-out: Tumor/Heart ratio
  tissue to tissue ratio at 1 h: 3.68 ± 1.43
[2]; [9]
  tissue to tissue ratio at 10 min: 0.56 ± 0.07
  tissue to tissue ratio at 0.5 h: 2.61 ± 0.82
  tissue to tissue ratio at 1.5 h: 2.13 ± 1.27
[2]; tumor and liver, 60 min p.i., read-out: Tumor/Liver ratio
  tissue to tissue ratio at 1 h: 2.53 ± 0.75
[2]; tumor and liver, with HN11-1 (block; amount not stated), 60 min HN11-1 Block, read-out: Tumor/Liver ratio
  tissue to tissue ratio at 1 h: 0.57 ± 0.27
[2]; [10]
  tissue to tissue ratio at 10 min: 1.04 ± 0.22
  tissue to tissue ratio at 0.5 h: 3.69 ± 0.24
  tissue to tissue ratio at 1.5 h: 1.05 ± 0.24
[2]; tumor and lung, 60 min p.i., read-out: Tumor/Lung ratio
  tissue to tissue ratio at 1 h: 3.01 ± 0.53
[2]; tumor and lung, with HN11-1 (block; amount not stated), 60 min HN11-1 Block, read-out: Tumor/Lung ratio
  tissue to tissue ratio at 1 h: 0.69 ± 0.23
[2]; [11]
  tissue to tissue ratio at 10 min: 1.82 ± 0.32
  tissue to tissue ratio at 0.5 h: 5.11 ± 0.25
  tissue to tissue ratio at 1.5 h: 2.66 ± 0.43
[2]; tumor and muscle, 60 min p.i., read-out: Tumor/Muscle ratio
  tissue to tissue ratio at 1 h: 4.11 ± 1.25
[2]; tumor and muscle, with HN11-1 (block; amount not stated), 60 min HN11-1 Block, read-out: Tumor/Muscle ratio
  tissue to tissue ratio at 1 h: 1.11 ± 0.27
[2]; tumor, read-out: Tumor uptake
  tissue uptake at 10 min: 1.61 ± 0.28 %ID/g
  tissue uptake at 0.5 h: 3.52 ± 0.35 %ID/g
  tissue uptake at 1.5 h: 0.39 %ID/g
[2]; tumor, 60 min HN11-1 Block, read-out: Tumor uptake
  tissue uptake at 1 h: 0.63 ± 0.18 %ID/g
[2]; tumor, 60 min p.i., read-out: Tumor uptake
  tissue uptake at 1 h: 2.2 ± 0.3 %ID/g
